Where two headings read alike, the source gives them in different places. Where no end group is shown, it is not given here.
Key:
[1] = system: clinical and commensial S. haemolyticus isolates; format: cell-based, Staphylococcus haemolyticus; settings: 5 h
Experimental: (§1) A semi-quantitative spot-on-lawn inhibitory assay was performed on 51 bacterial indicator strains (Table S1) to determine the bacteriocins inhibition spectra. Overnight cultures were diluted 1:100 in BHI soft agar and distributed on BHI agar plates. Once solidified, bacteriocins with various concentrations were applied on designated spots. The plates were incubated at appropriate temperature O/N and inhibition zones were measured the following day. To determine minimal inhibitory concentration (MIC50) of H1 against clinical S. haemolyticus isolates (Table S2), as well as strains heterologously expressing RseP (Table S4), the microtiterplate antimicrobial assay was performed as previously described[41],[79]. MIC50 was defined as the minimal bacteriocin concentration needs to inhibit the growth of a bacterial strain by at least 50%.

[2] = system: L. plantarum WCFS1 strains (with or without S. haemolyticus RseP); format: cell-based, Lactobacillus plantarum
Experimental: as §1
rseP (Uniprot: Q4L5W4) derived from S. haemolyticus 7067_4_21 was heterologously expressed in the naturally H1-resistant L. plantarum WCFS1[36] using the vector pSIP expression system[84],[85]. First, pLp1261_InvS, a pSIP401 derivative[84],[86], was linearized using FastDigest Restrictiction Enzymes NdeI and Acc65I (ThermoFisher Scientific) to isolate the vector part. Second, rseP was amplified by PCR using specially designed In-Fusion Primes (Table S6), giving amplicons with complementary ends to the linearized vector. The In-Fusion HD cloning Kit (Takara Bio) was used to fuse rseP into the linearized vector, yielding pSIP401_SHRseP. The plasmid was subsequently transformed to E.coli TOP10 (ThermoFischer Scientific). Plasmid DNA from E. coli was isolated using NucleoSpin Plasmid Kit (Macherey–Nagel). The DNA sequence of all PCR amplified fragments was verified by sequencing at Eurofins GATC, Germany, and before being electroporated into L. plantarum WCSF1 following the procedure described by Aukrust and Blom[87].

[3] = system: planktonic S. haemolyticus; format: cell-based, Staphylococcus haemolyticus
Experimental: Synergistic interactions between antimicrobials were determined using the fractional inhibition concentration (FIC) as previously described. The FIC values were determined using a mirotiterplate checkerboard assay. Briefly, antimirobial A was applied in wells A1–H1 then diluted two-fold in wells 2–12. In a second microtiter plate, antimicrobial B was applied in wells A1–A12, then diluted two folds in wells B–H. Fifty μl of the serial diluted antimirobial A was transferred to the wells of a third microtiter plate, except for wells H1–H12. Similarly, 50 μl of the serial diluted antimicrobial B was transferred to the same microtiter plate, except for wells A1–A12. Wells H1-12 and wells A1-12 contained only one of the antimicrobials and was used to estimate the MIC value of the pure substance. After combining the antimicrobials, 100 μl of a 1:25 diluted O/N of S. haemolyticus was transferred to each well of the third microplate, while 50 μl of medium was added to wells H1-12 and A1-12. […] FIC values were calculated as follows: FIC = FICa + FICb + FICc, where the FICa means MIC of A in combination/MIC of A alone, FICb means MIC of B in combination/MIC of B, and FICc means MIC of C in combination/MIC of C alone. Effects were considered as synergistic if FIC was ≤ 0.5 for two components mixture[81] and ≤ 0.75 for three components mixture.

[4] = system: Staphylococcus haemolyticus strains; test: Spot-on-lawn inhibition assay; format: cell-based; settings: six S. haemolyticus strains 4068–4073; 0.04, 0.2 and 1.0 mg/ml, 5 µl spotted
Experimental: as §1

[5] = S. haemolyticus 4068, planktonic cells, 5 h exposure
[6] = S. haemolyticus 4068, planktonic cells, 24 h exposure
[7] = S. haemolyticus 4068, planktonic cells, 48 h exposure
[8] = S. haemolyticus 4069, planktonic cells, 5 h exposure
[9] = S. haemolyticus 4069, planktonic cells, 24 h exposure
[10] = S. haemolyticus 4069, planktonic cells, 48 h exposure
[11] = S. haemolyticus 4070, planktonic cells, 5 h exposure
[12] = S. haemolyticus 4070, planktonic cells, 24 h exposure
[13] = S. haemolyticus 4070, planktonic cells, 48 h exposure
[14] = S. haemolyticus 4071, planktonic cells, 5 h exposure
[15] = S. haemolyticus 4071, planktonic cells, 24 h exposure
[16] = S. haemolyticus 4071, planktonic cells, 48 h exposure
[17] = S. haemolyticus 4072, planktonic cells, 5 h exposure
[18] = S. haemolyticus 4072, planktonic cells, 24 h exposure
[19] = S. haemolyticus 4072, planktonic cells, 48 h exposure
[20] = S. haemolyticus 4073, planktonic cells, 5 h exposure
[21] = S. haemolyticus 4073, planktonic cells, 24 h exposure
[22] = S. haemolyticus 4073, planktonic cells, 48 h exposure

MKFKFNPTGTIVKKLTQYEINWYKQQYGRYPWERPVA [H1]
MIC50 against the different S. haemolyticus strains [1]: 100 to 780 µg/mL
Minimal inhibitory concentration (MIC) ([2]; L. plantarum WCFS1): > 50 µg/mL
Minimal inhibitory concentration (MIC) ([2]; L. plantarum WCFS1/pEV, expressing empty vector): > 50 µg/mL
Minimal inhibitory concentration (MIC) ([2]; L. plantarum WCFS1/pSIP401_SHRseP, expressing RseP from S. haemolyticus 7067_4_21): 0.39 µg/mL
MIC50 over the tested strains ([3]; planktonic, 5 h): 0.78 µg/mL
MIC, individual component ([3]; planktonic, 24 h): 0.78 µg/mL

SCTTCVCTCSCCTT [MP1, micrococcin P1]
Inhibition zones at three concentrations [4]: clear inhibition zones at all three concentrations
MIC, individual component [3, 5]: 0.02 µg/mL
MIC, individual component [3, 6]: 0.023 µg/mL
MIC, individual component [3, 7]: 0.078 µg/mL
MIC, individual component [3, 8]: 0.15 µg/mL
MIC, individual component [3, 9]: > 10 µg/mL
MIC, individual component [3, 10]: > 10 µg/mL
MIC, individual component [3, 11]: 0.02 µg/mL
MIC, individual component [3, 12]: 0.33 µg/mL
MIC, individual component [3, 13]: 0.13 µg/mL
MIC, individual component [3, 14]: 0.043 µg/mL
MIC, individual component [3, 15]: > 10 µg/mL
MIC, individual component [3, 16]: > 10 µg/mL
MIC, individual component [3, 17]: 0.039 µg/mL
MIC, individual component [3, 18]: > 10 µg/mL
MIC, individual component [3, 19]: 0.63 µg/mL
MIC, individual component [3, 20]: 0.022 µg/mL
MIC, individual component [3, 21]: 0.072 µg/mL
MIC, individual component [3, 22]: 0.14 µg/mL

garvicin KS [GarKS]
Inhibition zones at three concentrations [4]: some inhibition was seen only at the highest concentration
MIC, individual component [3, 5]: 6.5 µg/mL
MIC, individual component [3, 6]: 24 µg/mL
MIC, individual component [3, 7]: 25 µg/mL
MIC, individual component [3, 8]: 3.3 µg/mL
MIC, individual component [3, 9]: 13 µg/mL
MIC, individual component [3, 10]: 26 µg/mL
MIC, individual component [3, 11]: 12 µg/mL
MIC, individual component [3, 12]: 48 µg/mL
MIC, individual component [3, 13]: 51 µg/mL
MIC, individual component [3, 14]: 12.5 µg/mL
MIC, individual component [3, 15]: 51 µg/mL
MIC, individual component [3, 16]: 100 µg/mL
MIC, individual component [3, 17]: 23.6 µg/mL
MIC, individual component [3, 18]: 49 µg/mL
MIC, individual component [3, 19]: 52 µg/mL
MIC, individual component [3, 20]: 12.5 µg/mL
MIC, individual component [3, 21]: 51 µg/mL
MIC, individual component [3, 22]: 51 µg/mL
